“Also recorded” adds a separate entry of the source. Read-outs that look alike come from different tables or passages of the source.
Experiments:
[1] = Phase IIA clinical trial (Part C): pharmacokinetics in patients; assay type: in vivo; settings: both sexes, human, plasma; for AUC(0-inf): read-out: AUC0-infinity (Mean ± SD, h · ng/mL); for Cmax: read-out: Cmax (Mean ± SD, ng/mL); for half-life: read-out: T1/2 (median, hr) (converted); for Tmax: read-out: Tmax (median, hr)
Method: (§1) • Collect blood (3 mL recommended) onto wet ice (K2EDTA tubes) • Immediately cool blood on crushed wet ice for maximum of 30 minutes • Harvest plasma as quickly as possible using refrigerated centrifuge by centrifuging at 2000 g for 10 minutes at 4° C. • Keep plasma on wet ice and immediately stabilise with 1:1 (v/v) addition of Water: Orthophosphoric Acid (100:2 v/v) prepared using ≥85% orthophosphoric acid and deionised water (e.g. 750 μL plasma+750 μL stabiliser). • Mix sample thoroughly. • Keep the stabilised plasma on wet ice during subsequent steps. • Divide the stabilised plasma into 5×250 μL aliquots in plastic cryotubes. • Store aliquots at nominal −70° C./−80° C. promptly.
(§2) • 1. Thaw frozen calibration standards, QC samples, blank matrix and study samples on wet ice. • 2. Vortex-mix all samples thoroughly. • 3. On wet ice aliquot 150 μL of calibration standards, QC samples, study samples, and blanks into a 2 mL 96-well plate. For the reagent blank add the same volume of Water. • 4. On wet ice add 25 μL of Methanol:Water (50:50) to wells containing blanks and the same volume of ISTD intermediate solution to all other wells. • 5. On wet ice add 125 μL of Water to each well. Cap plate and vortex-mix (˜5 minutes, 1000 rpm). • 6. Centrifuge plate (˜3000 g, 3 minutes, room temperature). • 7. Condition SPE plate (Waters Oasis HLB pElution) with 250 μL Methanol. • 8. Condition SPE plate with 250 μL of Water. • 9. Load 250 μL of the sample onto the SPE plate (aspirate from the rim of the cone to avoid any debris collected at the bottom of the well). Pass through using minimum pressure. • 10. Wash SPE plate with 250 μL of Water. • 11. Wash SPE plate with 250 μL of Methanol:Water (5:95). Briefly increase pressure for one minute to ensure sorbent is partially dried. • 12. Elute from SPE plate into a 1.2 mL 96-well plate using 30 μL of Methanol. Stand for one minute then pass through using absolute minimum pressure. • 13. Elute again with another 30 μL of Methanol, collecting into the same plate. Briefly increase pressure for one minute to complete the elution. • 14. Add 125 μL of Ammonium Formate 10 mM (aq):Formic Acid (100:0.3) to each well. Cap plate and vortex mix (˜1 minute, ≥1200 rpm). • 15. Store plate refrigerated prior to analysis.
(§3) For each subject, the study consisted of three study periods during which subjects received either a single dose of NMD670 400 mg, NMD670 1200 mg, or placebo with a 7-day washout period between visits. On these study visits, subjects were asked to refrain from their regular dose of pyridostigmine (if applicable) from 14 h before dosing until after the last pharmacodynamic measurement on Day 1 (see Table 13: Visit and Assessment Schedule). The cross-over design allowed intra-individual comparison of drug effects versus placebo (see FIG. 16). A balanced design was applied to control for first-order carry-over effects.
(§4) Part C was a double-blinded, placebo-controlled, three-way cross-over comparison of two single oral doses of NMD670 in men and women with stable symptomatic myasthenia gravis. 12 patients were enrolled. For each subject, the study consisted of three study periods during which subjects received either a single dose of NMD670 or placebo. On these study visits, subjects were asked to refrain from their regular dose of pyridostigmine (if applicable) for 14 hours before dosing. Single doses were administered in randomized order (400 mg free acid, 1200 mg free acid, or placebo p.o.), with a 7-day washout period between visits (FIG. 16). NMD670/placebo was administered with 240 ml of still water.

[2] = Phase I clinical trial Part A: pharmacokinetics; assay type: in vivo; settings: human; for Cmax / half-life / AUC(0-inf): plasma; for AUC(0-inf): read-out: AUC0-infinity (Mean ± SD, h · ng/mL)
[3] = Phase I clinical trial Part A: pharmacokinetics; assay type: in vivo; settings: human; for half-life: read-out: T1/2 (mean ± SD, hr) (converted)
Method: as §1, §2
Subjects received 800 mg NMD670.

[4] = system: muscle fibres from EAMG rats; assay: Endplate potentials (EPP) in isolated nerve-muscle preparations; assay type: cell-based, rat; settings: 20 μM NMD670
Source text: To allow for measurements of electrophysiological properties at the cellular level and for measurements of force, it was necessary to isolate nerve-muscle preparations from the rats. To this end, animals were sacrificed, and muscles were dissected out with 1 to 3 cm of intact nerve. The nerve-muscle preparations were then transferred to the organ baths used for the particular experiments (see below) and perfused with Normal Krebs-Ringer (NKR) solution, consisting of (in mM); 122 NaCl, 25 NaHCO3, 2.8 KCl, 1.2 KH2PO4, 1.2 MgSO4 1.27 CaCl2 and 5 D-glucose. This NKR solution was continuously gassed with a mixture of 95% oxygen and 5% CO2, to maintain a pH of approx. 7.4. In some experiments methyl-sulphate was used to replace Cl^− in the solution. All chemicals used were of analytical grade.
The effect of CIC-1 inhibition on neuromuscular transmission was investigated at the cellular level by recording endplate potentials (EPPs) with intracellular electrodes in isolated nerve-muscle preparations from healthy and EAMG rats (score 0-2). Muscle preparations used in the experiments were diaphragm or levator longus auris (LAL) providing the advantage to dissect out 1-3 cm of intact motor nerve. After dissection, preparations were immediately mounted in a chamber perfused with NKR at a temperature of 30-31° C., pH 7.4-7.5. […]

healthy subjects = assay: Phase I clinical trial Part A: tolerability/safety of single doses
Source text: Part A1 tested single doses of NMD670 in a double-blind, randomised, placebo-controlled, partial crossover and dose-escalating design in healthy male subjects (see the WHO International Clinicals Trials Registry Platform study reference NL8692). A total of nine dose levels were investigated in three cohorts of subjects. Each cohort consisted of nine subjects, each subject had three study sessions. Each subject received escalating doses of NMD670 on two occasions and placebo on one occasion, the order will be randomized in a cross-over fashion. Each dose level was randomized in a 6:3 ratio (active vs. placebo).
Therefore, for the remaining 2 doses, a full cross-over design investigating one previously tested dose level was used. […] To determine the effect of food on the exposure of single oral doses of NMD670, dose level 5 was administered in both the fasted and fed condition. Subjects who received dose level 5 returned for a fourth visit in which they received dose level 5 (or matching placebo) in the fed condition, in the same randomization as the chosen dose level in the fasted condition.
Part A2 of the study investigated the safety, tolerability and pharmacokinetics of NMD670 in 8 healthy female subjects of non-childbearing potential, in a randomized, double-blind, placebo-controlled single dose administration of NMD670. Subjects received 800 mg NMD670. Subjects were randomized in a 6:2 ratio (active vs. placebo).
The following endpoints were determined at time points indicated in the Schedule of Assessments. • Serious adverse events (SAEs) and adverse events (AEs) were collected throughout the study at every study visit. • Concomitant medication • Clinical laboratory tests • Haematology • Chemistry • Urinalysis • Coagulation • Vital signs • Pulse Rate (bpm) • Systolic blood pressure (mmHg) • Diastolic blood pressure (mmHg) • Respiratory rate • ECG • Heart Rate (HR) (bpm), PR, QRS, QT, QTcF • 24-hour Holter recording • Hand grip dynamometry • Grip release profile; time profile from 100% maximum voluntary contraction (MVC) to 5% of the 100% MVC

patients with MG = assay: Phase 1 FIH study: safety in patients with MG; assay type: in vivo, human
Method: as §3, with “12 patients were enrolled and completed the study. For” for “For”
as §4

[5] = male, po, 1600 mg, 1600 mg single oral dose, healthy male subjects, SD not given
[6] = of a total of 70 AEs, Part A healthy subjects

## C[C@H](Oc1ccc(Br)cc1-c1ccon1)C(=O)O [NMD670, (2S)-2-[4-bromo-2-(1,2-oxazol-3-yl)phenoxy]propanoic acid]
[1]; 400 mg single oral dose
  AUC(0-inf): 93.7 µg·h/mL
  Cmax: 21700 ng/mL
  half-life: 5.43 h
  Tmax: 2 h
[1]; 1200 mg single oral dose
  AUC(0-inf): 378 µg·h/mL
  Cmax: 76700 ng/mL
  half-life: 5.06 h
  Tmax: 2 h
[2]; female, po, 800 mg, 800 mg (female), single oral dose, read-out: Cmax (Mean ± SD, ng/mL)
  Cmax: 44400 ± 7480 ng/mL
[2]; phase 1 FIH study
  Accumulation between single and multiple dosing: no meaningful accumulation
[2]; oral, mostly eliminated in 24 hours, read-out: Half-life (converted)
  half-life: ~5 h
[2]; male, po, 50 mg, 50 mg single oral dose, healthy male subjects, read-out: Cmax (Mean ± SD, ng/mL)
  Cmax: 1900 ± 580 ng/mL
[2]; male, po, 100 mg, 100 mg single oral dose, healthy male subjects
  AUC(0-inf): 18.5 ± 1.77 µg·h/mL
[2]; male, po, 100 mg, 100 mg single oral dose, healthy male subjects, read-out: Cmax (Mean ± SD, ng/mL)
  Cmax: 3980 ± 1190 ng/mL
[2]; male, po, 100 mg, 100 mg single oral dose, healthy male subjects, read-out: T1/2 (mean ± SD, hr) (converted)
  half-life: 5.07 ± 0.63 h
[2]; male, po, 200 mg, 200 mg single oral dose, healthy male subjects
  AUC(0-inf): 36.1 ± 5.03 µg·h/mL
[2]; male, po, 200 mg, 200 mg single oral dose, healthy male subjects, read-out: Cmax (Mean ± SD, ng/mL)
  Cmax: 7780 ± 1130 ng/mL
[2]; male, po, 200 mg, 200 mg single oral dose, healthy male subjects, read-out: T1/2 (mean ± SD, hr) (converted)
  half-life: 4.6 ± 0.67 h
[2]; male, po, 400 mg, 400 mg single oral dose, healthy male subjects
  AUC(0-inf): 87.7 ± 21.4 µg·h/mL
[2]; male, po, 400 mg, 400 mg single oral dose, healthy male subjects, read-out: Cmax (Mean ± SD, ng/mL)
  Cmax: 20100 ± 7340 ng/mL
[2]; male, po, 400 mg, 400 mg single oral dose, healthy male subjects, read-out: T1/2 (mean ± SD, hr) (converted)
  half-life: 4.68 ± 0.49 h
[2]; male, po, 800 mg, 800 mg fasted (male), single oral dose
  AUC(0-inf): 191 ± 31.5 µg·h/mL
[2]; male, po, 800 mg, 800 mg fasted (male), single oral dose, read-out: Cmax (Mean ± SD, ng/mL)
  Cmax: 36700 ± 15400 ng/mL
[2]; male, po, 800 mg, 800 mg fed (male), single oral dose
  AUC(0-inf): 180 ± 27.9 µg·h/mL
[2]; male, po, 800 mg, 800 mg fed (male), single oral dose, read-out: Cmax (Mean ± SD, ng/mL)
  Cmax: 37300 ± 7420 ng/mL
[2]; male, po, 1200 mg, 1200 mg single oral dose, healthy male subjects
  AUC(0-inf): 358 ± 176 µg·h/mL
[2]; male, po, 1200 mg, 1200 mg single oral dose, healthy male subjects, read-out: Cmax (Mean ± SD, ng/mL)
  Cmax: 55000 ± 21700 ng/mL
[2]; male, po, 1200 mg, 1200 mg single oral dose, healthy male subjects, read-out: T1/2 (mean ± SD, hr) (converted)
  half-life: 6.11 ± 1.28 h
[2]; [5]
  Cmax: 123000 ng/mL
  AUC(0-inf): 826 µg·h/mL
[2]; male, po, 1600 mg, 1600 mg single oral dose, healthy male subjects, SD not given, read-out: T1/2 (mean ± SD, hr) (converted)
  half-life: 4.48 h
[3]; female, plasma, po, 800 mg, 800 mg (female), single oral dose, read-out: AUC0-infinity (Mean ± SD, h · ng/mL)
  AUC(0-inf): 256 ± 56.2 µg·h/mL
[3]; female, plasma, po, 800 mg, 800 mg (female), single oral dose
  half-life: 5.55 ± 0.55 h
[3]; phase 1 FIH study
  Linearity of PK parameters: approximately linear and predictable
[3]; male, plasma, po, 800 mg, 800 mg fasted (male), single oral dose
  half-life: 5.39 ± 0.82 h
[3]; male, plasma, po, 800 mg, 800 mg fed (male), single oral dose
  half-life: 5.02 ± 1.04 h
[4]
  Endplate potential (EPP) in muscle fibres from EAMG rats vs healthy rats: could be restored
[4]; EAMG rats, throughout a 12 Hz train of 30 stimulations, 82 fibres vs 68 fibres without inhibitor
  Increase of endplate potential (EPP) amplitude: more than 35%
Healthy subjects; 1200 mg QD, mild in intensity, resolved spontaneously within a few hours
  Healthy subjects with myotonic symptoms: 2 healthy subjects
Healthy subjects; 1200 mg and 1600 mg single dose, healthy subjects
  AE with dose relationship, reported at the highest dose levels tested: transient myotonia
Healthy subjects; Part A healthy subjects
  Subject discontinuations: no subject discontinuations
Healthy subjects; Part A, 35 healthy subjects, single-ascending dose study
  Total number of AEs reported: 70 AEs
Healthy subjects; Phase 1 clinical study, considered non-clinically significant
  Serum uric acid: dose-dependent decrease in serum uric acid
Healthy subjects; Phase 1 healthy subjects
  Intensity of most AEs: mild and mild in intensity
Healthy subjects; healthy subjects, based on myotonia
  Maximum tolerated dose: 1200 mg QD
Healthy subjects; [6]
  AEs at least possibly drug-related (number): 47 AEs
  AEs at least possibly drug-related (proportion): 67%
Healthy subjects; one healthy subject, single dose 1600 mg, spontaneously and fully resolved within hours, dose escalation stopped
  Myotonia at 1600 mg (intensity): myotonia of moderate intensity; also recorded: moderate in intensity; also recorded: Myotonia of moderate severity
Healthy subjects; single doses 50-1600 mg, healthy subjects
  Serious or severe adverse effects: No serious or severe adverse effects; also recorded: No serious adverse reactions were reported
Healthy subjects; single doses, healthy subjects
  Relationship between increases in NMD670 dose and incidence of participants with AEs: no meaningful relationships
Patients with MG; 1200 mg doses
  Treatment-related adverse effects in MG patients: no treatment-related adverse effects
Patients with MG; single doses up to 1200 mg
  Myotonia in patients with MG: not observed

— patent publication US20260102377A1, “COMPOSITIONS AND METHODS FOR TREATING MYASTHENIA GRAVIS” (priority 2022, published 2026)
